We go through 9 molecules from patent publication US20160068466A1, “ESTER DERIVATIVES OF ANDROGEN RECEPTOR MODULATORS AND METHODS FOR THEIR USE” (The University of British Columbia, priority 2013, published 2016).

Like-named read-outs stand apart in the source and are kept apart here.

The target of one experiment is T1, androgen receptor (Homo sapiens, UniProt P10275, T878A).
T1 construct: LNCaP cells express endogenous AR; endogenous in cells; host or cells: LNCaP
T1 sequence (P10275 1-920 T878A): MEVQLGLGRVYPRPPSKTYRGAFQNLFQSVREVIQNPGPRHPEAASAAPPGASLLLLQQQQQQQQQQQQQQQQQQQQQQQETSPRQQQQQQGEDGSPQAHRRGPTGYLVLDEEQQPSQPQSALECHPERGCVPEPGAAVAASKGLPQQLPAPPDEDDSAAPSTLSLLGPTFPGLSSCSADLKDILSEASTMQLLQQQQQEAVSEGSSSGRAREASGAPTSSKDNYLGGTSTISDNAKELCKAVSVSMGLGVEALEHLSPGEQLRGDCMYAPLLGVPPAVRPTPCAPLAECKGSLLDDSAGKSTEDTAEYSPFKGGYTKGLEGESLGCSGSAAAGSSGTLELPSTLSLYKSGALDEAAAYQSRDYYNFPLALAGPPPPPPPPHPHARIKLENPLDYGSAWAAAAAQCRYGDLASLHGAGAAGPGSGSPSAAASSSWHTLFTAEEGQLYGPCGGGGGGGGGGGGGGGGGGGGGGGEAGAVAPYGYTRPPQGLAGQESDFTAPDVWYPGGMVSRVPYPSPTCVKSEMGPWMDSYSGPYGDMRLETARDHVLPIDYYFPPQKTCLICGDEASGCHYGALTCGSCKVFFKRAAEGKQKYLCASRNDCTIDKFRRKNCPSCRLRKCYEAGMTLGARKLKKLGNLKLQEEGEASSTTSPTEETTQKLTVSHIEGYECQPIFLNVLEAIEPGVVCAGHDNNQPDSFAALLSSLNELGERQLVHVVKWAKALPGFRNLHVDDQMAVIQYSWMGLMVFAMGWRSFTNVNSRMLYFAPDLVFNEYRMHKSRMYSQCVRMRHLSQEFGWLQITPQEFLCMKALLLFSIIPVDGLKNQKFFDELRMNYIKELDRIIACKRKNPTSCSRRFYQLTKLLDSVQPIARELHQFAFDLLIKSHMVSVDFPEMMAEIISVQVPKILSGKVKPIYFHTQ
Kind of experiment: PSA(6.1 kb)-luciferase reporter assay in LNCaP cells induced with R1881. In kind it is cell-based. The source says: LNCaP cells were employed for experiments because they are well-differentiated human prostate cancer cells in which ligand-dependent and ligand-independent activation of AR by FSK has been characterized (Nazareth et al 1996 J. Biol. Chem. 271, 19900-19907; and Sadar 1999 J Biol. Chem. 274, 7777-7783). LNCaP cells express endogenous AR and secrete prostate-specific antigen (PSA) (Horoszewicz et al 1983 Cancer Res. 43, 1809-1818). LNCaP cells can be grown either as monolayers in cell culture or as tumors in the well-characterized xenograft model that progresses to castration-resistant prostate cancer (CRPC) in castrated hosts (Sato et al 1996 J. Steroid Biochem. Mol. Biol. 58, 139-146; Gleave et al 1991 Cancer Res. 51, 3753-3761; Sato et al 1997 Cancer Res. 57, 1584-1589; and Sadar et al 2002 Mol. Cancer Ther. 1(8), 629-637). R1881 (a synthetic androgen) is employed since it is stable and avoids problems associated with the labile physiological ligand dihydrotestosterone (DHT).
One well characterized ARE-driven reporter gene construct that has been used extensively is the PSA (6.1 kb) enhance/promoter which contains several AREs and is highly inducible by androgens as well as by FSK (Ueda et al 2002 A J. Biol. Chem. 277, 7076-7085).
LNCaP (2.4×10^4 cell/well) cells were seeded on 24-well plates overnight before transfection with PSA(6.1 kb)-luciferase plasmid (0.25 ug/well) in serum-free, red phenol-free media. The next day, cells were pre-treated with compounds of the disclosure for 1 hour before the addition of synthetic androgen, R1881 (1 nM) to trans activate the androgen receptor. After 48 h of incubation with R1881, the cells were harvested, and relative luciferase activity was determined as a read-out for androgen receptor transcriptional activity. Test compounds were added to the cells at various concentrations and activity for each treatment was normalized to the predicted maximal activity induction (in the absence of test compounds, vehicle only). Transfection experiments were performed using triplicate wells.
Further experiments, as outlined in Example 22, were conducted with LNCaP cells transfected with PSA-luciferase plasmid to evaluate the dose response of particular compounds of the disclosure.
(In general: Reporter assays use an easily measured gene product as a stand-in for the process of interest.)

In another experiment the test system is LNCaP cells. Kind of experiment: AlamarBlue proliferation assay, androgen-dependent proliferation of LNCaP cells in response to R1881. In kind it is cell-based, human. The following applies: 0.1 nM R1881, 3 days, FIG. 10. Here is the method:
Protocol: Proliferation assays using AlamarBlue, wherein the % androgen-dependent proliferation represents proliferation of LNCaP cells in response to R1881 compared to basal levels.
PC3 and LNCaP cells were plated in 96-well plates in respective media plus 0.5% FBS. […] Cell viability was measured using alamarBlue Cell Viability Assay (Invitrogen) following the manufacturer's protocol.
(The colour change of resazurin is a common sign of viable cells or microbes.)

The next experiment has as its system LNCaP xenografts. Put plainly: LNCaP xenograft tumor volume in castrated NOD-SCID mice. In kind it is in vivo. Here is the method:
Male NOD-SCID mice bearing subcutaneous tumors were castrated when tumor volume was approximately 100 mm3.
Tumors were measured using caliphers and the volume calculated by application of the formula (L×W×H)*0.5236.
Animals bearing LNCaP xenografts were dosed daily by oral gavage with 55.23 mg/kg body weight of Compound 7c or CMC/10% DMSO/Tween-20 vehicle control.
Tumors were measured using caliphers and the volume calculated by application of the formula (L×W×H)*0.5236Male

The mark [1] stands for this setting: PSA-luc, mean, read-out: PSA-luc IC50s MEAN.
Setting [2] is: LNCaP cells transfected with PSA-luciferase plasmid, R1881 1 nM, 48 h, data of FIG. 9, read-out: IC50 (μM + Standard Deviation).

In the case of `CC(C)(c1ccc(OC[C@H](O)CCl)cc1)c1ccc(OC[C@H](O)COC(=O)CN)cc1` [(S)-3-(4-(2-(4-((S)-3-chloro-2-hydroxypropoxy)phenyl)propan-2-yl)phenoxy)-2-hydroxypropyl 2-aminoacetate], on androgen receptor (setting [1]), the IC50 was found to be 12.1 µM.
Turning to `COC[C@@H](COc1ccc(C(C)(C)c2ccc(OC[C@@H](CCl)OC(C)=O)cc2)cc1)OC(C)=O` [Example 21, (S)-1-(4-(2-(4-((S)-2-acetoxy-3-chloropropoxy)phenyl)propan-2-yl)phenoxy)-3-methoxypropan-2-yl acetate], the IC50 on androgen receptor (setting [2]) was 8.07 µM.
The same measure, in the same setting: with `CC(=O)OC[C@@H](O)COc1ccc(C(C)(C)c2ccc(OC[C@H](O)CCl)cc2)cc1` [Compound 1c] the figure was 25.6 µM.
`CC(=O)OC[C@H](COc1ccc(C(C)(C)c2ccc(OC[C@H]3CO3)cc2)cc1)OC(C)=O` [Example 11, (S)-3-(4-(2-(4-((R)-oxiran-2-ylmethoxy)phenyl)propan-2-yl)phenoxy)propane-1,2-diyl diacetate]: the IC50 at androgen receptor (setting [1]) is 26 µM.
On the same count and under the same terms, with `CC(C)(c1ccc(OC[C@@H](CCl)OC(=O)CCC(=O)O)cc1)c1ccc(OC[C@@H](COC(=O)CCC(=O)O)OC(=O)CCC(=O)O)cc1` [Example 13, (S)-3-(4-(2-(4-((S)-3-chloro-2-hydroxypropoxy)phenyl)propan-2-yl)phenoxy)propane-1,2-diol trisuccinate] the figure was 60.2 µM; with `CC(=O)OC[C@H](COc1ccc(C(C)(C)c2ccc(OC[C@H](O)CCl)cc2)cc1)OC(C)=O` [Compound 4c, (S)-3-(4-(2-(4-((S)-3-chloro-2-hydroxypropoxy)phenyl)propan-2-yl)phenoxy)propane-1,2-diyl diacetate], 15.3 µM.
Consider `COC[C@H](O)COc1ccc(C(C)(C)c2ccc(OC[C@H](O)CCl)cc2)cc1` [Compound B, reference compound], for which the IC50 at androgen receptor (setting [2]) came out at 9.8 µM.
For the molecule `CC(=O)OC[C@H](COc1ccc(C(C)(C)c2ccc(OC[C@@H](CCl)OC(C)=O)cc2)cc1)OC(C)=O` [Compound 7c, (S)-3-(4-(2-(4-((S)-2-acetoxy-3-chloropropoxy)phenyl)propan-2-yl)phenoxy)propane-1,2-diyl diacetate], the IC50 at androgen receptor (setting [2]) was determined as 8.81 µM. In the experiment on LNCaP cells, the “potency in proliferation assay relative to active compound (compound A)” value is reported as “twice as potent”. The tumor volume result is reported as “effective at reducing tumor volume” in the experiment with LNCaP xenografts (Example 25, daily oral gavage, 10% DMSO/corn oil vehicle control, FIG. 11) and “effective at reducing tumor volume” in the experiment on LNCaP xenografts (Example 26, 55.23 mg/kg body weight daily by oral gavage, CMC/10% DMSO/Tween-20 vehicle control, FIG. 12). Further, the “tumor volume reduction compared with compound A” value in the experiment with LNCaP xenografts (Example 25, daily oral gavage, FIG. 11) was “more effective than its active compound”.
For `CC(=O)O[C@H](CCl)COc1ccc(C(C)(C)c2ccc(OC[C@H](O)CO)cc2)cc1` [Compound 3c], the IC50 on androgen receptor (setting [2]) is 11.6 µM.
